Measured values: article PMC11944515, “Host-Mediated Antimicrobial Effects and NLRP3 Inflammasome Modulation by Caulerpin and Its Derivatives in Macrophage Models of Mycobacterial Infections” (Microorganisms, 2025)

Experiments:
M. tuberculosis H37Ra = assay: M. tuberculosis susceptibility by CFU enumeration; type: cell-based, Mycobacterium tuberculosis; conditions: 0.03 μM, 48 h of treatment, positive control
Experimental: Next, CP, CA, and DE were diluted in Middlebrook 7H9 plus 10% OADC for the cellular susceptibility assay with M. tuberculosis H37Ra to yield concentrations up to 15 µM, 30 µM, and 15 µM, respectively. RIF at 0.03 µM was used as a positive control. The final DMSO concentration in all wells was 2.5%. The M. tuberculosis suspension was diluted in 7H9 plus 10% OADC to achieve an optical density of 0.006 at 595 nm, and 100 μL was then added to each well. Plates were covered, sealed with parafilm, and incubated at 37 °C for 48 h. After incubation, aliquots were removed, diluted, and plated in Middlebrook 7H10 agar plus 10% OADC. Plates were incubated at 37 °C for 4 weeks, and CFU were counted. CFU numbers were expressed as log10(CFU/mL).

[1] = test system: Mycobacterium smegmatis mc2155; assay: M. smegmatis susceptibility by CFU enumeration; type: cell-based
RAW 264.7 cells = assay: Direct effects on RAW 264.7 cell viability (MTT); type: cell-based, murine
Experimental: The direct effects of CP and its analogues on RAW 264.7 viability were evaluated using the MTT method. RAW 264.7 cells were seeded at 1 × 10^4 cells/well (for 24 h incubation) and 5 × 10^3 cells/well (for 48 h incubation) and incubated overnight to allow adhesion. The culture medium was carefully aspirated and replaced with 100 μL DMEM plus 100 μL of test compound solutions, yielding final concentrations ranging from 3.25 to 30 µM (DMSO 1%, v/v). After 24 or 48 h of exposure to test compounds, cells were incubated with MTT (0.5 mg/mL) for 3 h. The resulting formazan crystals were dried, dissolved in DMSO, and absorbance was measured at 570 nm using a microplate reader (EL800, BioTek, Winooski, VT, USA). The precipitated purple formazan crystals were directly proportional to the number of metabolically active viable cells. The cell viability was then calculated as: Cell viability (%) = (Sample absorbance/Control absorbance) × 100. Data were expressed as mean of cell viability ± standard error of the mean from three to four independent experiments performed in triplicate.

[2] = test system: M. smegmatis within RAW 264.7 macrophages; assay: Therapeutic potential in M. smegmatis-infected RAW 264.7 cells (CFU); type: cell-based, Mycobacterium smegmatis; conditions: 15, 7.5 and 3.25 µM, 24 h
Experimental: For the first in vitro infection test with M. smegmatis, RAW 264.7 were seeded in 96-well culture plates at a density of 1 × 10^4 cells/well in DMEM medium (with 10% FBS, without antibiotics) and incubated overnight at 37 °C with 5% CO2 [20]. Infection of RAW 264.7 cells with M. smegmatis mc^2155 was performed at a multiplicity of infection of 1:1 for 2 h at 37 °C with 5% CO2. The medium with non-internalized bacteria was removed, and infected cells were then treated with the tested substances in DMEM: CP (15 µM, 7.5 µM and 3.25 µM), CA (30 µM, 15 µM, 7.5 µM and 3.25 µM), DE (15 µM, 7.5 µM and 3.25 µM), and DP (15 µM, 7.5 µM and 3.25 µM). Macrophages were lysed after 24 h with 0.1% Triton–X100, and these suspensions were diluted and plated on LB. CFU was determined after incubation of plates for 3 days at 37 °C. CFU numbers were expressed as log (CFU/well).

In the case of `CO[C@H]1/C=C/O[C@@]2(C)Oc3c(C)c(O)c4c(O)c(c(/C=N/N5CCN(C)CC5)c(O)c4c3C2=O)NC(=O)/C(C)=C\C=C\[C@H](C)[C@H](O)[C@@H](C)[C@@H](O)[C@@H](C)[C@H](OC(C)=O)[C@@H]1C` [RIF, Rifampicin, reference compound], the “reduction of M. tuberculosis bacterial burden” value (M. tuberculosis H37Ra) is reported as 0.362 log10 CFU/mL and the “reduction of M. smegmatis CFU count” value ([1]; 31 μM, 24 h of incubation, positive control) is reported as 3.41 log10.

`CC(C)COC(=O)/C1=C/c2c([nH]c3ccccc23)/C(C(=O)OCC(C)C)=C\c2c1[nH]c1ccccc21` [Diisobutyl, (6E,13E)-diisobutyl 5,12-dihydrocycloocta[1,2-b:5,6-b′]diindole-6,13-dicarboxylate] was tested, and the “effect on RAW 264.7 cell viability” value (RAW 264.7 cells; 24 h incubation, 3.25 to 30 µM) was “affected cell viability at the three highest concentrations assessed”.

`CCCCCOC(=O)/C1=C/c2c([nH]c3ccccc23)/C(C(=O)OCCCCC)=C\c2c1[nH]c1ccccc21` [diamyl, (6E,13E)-dipentyl 5,12-dihydrocycloocta[1,2-b:5,6-b′]diindole-6,13-dicarboxylate] was tested, and the “effect on RAW 264.7 cell viability” value (RAW 264.7 cells; 24 h incubation, 3.25 to 30 µM) was “affected cell viability at all concentrations assessed”.

In the case of `CCCOC(=O)/C1=C/c2c([nH]c3ccccc23)/C(C(=O)OCCC)=C\c2c1[nH]c1ccccc21` [DP, (6E,13E)-dipropyl 5,12-dihydrocycloocta[1,2-b:5,6-b′]diindole-6,13-dicarboxylate], the “effect on intracellular M. smegmatis growth in RAW 264.7” value [2] is reported as “no inhibitory effect”, the “reduction of M. smegmatis viability” value ([1]; 30 μM, 24 h incubation) is reported as 0.639 log10 CFU and the “effect on RAW 264.7 cell viability” value (RAW 264.7 cells; 24 h incubation, 3.25 to 30 µM) is reported as “did not affect viability at any of the concentrations tested”. For the same compound, the “effect on RAW 264.7 cell viability” value (RAW 264.7 cells; 48 h incubation) was “did not affect cell viability at any concentration evaluated”.
